Test results published in patent US20060223826A1, “Indole derivatives as somatostatin agonists or antagonists” (Takeda Pharmaceutical Company Limited Intellectual Property …, priority 2002, published 2006).

Legend:
[1] = target: T1, human somatostatin receptor 2 (Homo sapiens, UniProt P30874); experiment: Measurement of the binding inhibition rate of 125I-somatostatin; details: membrane fraction of SSTR2-HS5-9 CHO cells; 125I-somatostatin-14; 25° C., 60 minutes; compound concentration not given
T1 construct: expressed in transfected cells; host or cells: CHO cells, clone SSTR2-HS5-9 (membrane fraction)
T1 sequence (P30874 whole entry): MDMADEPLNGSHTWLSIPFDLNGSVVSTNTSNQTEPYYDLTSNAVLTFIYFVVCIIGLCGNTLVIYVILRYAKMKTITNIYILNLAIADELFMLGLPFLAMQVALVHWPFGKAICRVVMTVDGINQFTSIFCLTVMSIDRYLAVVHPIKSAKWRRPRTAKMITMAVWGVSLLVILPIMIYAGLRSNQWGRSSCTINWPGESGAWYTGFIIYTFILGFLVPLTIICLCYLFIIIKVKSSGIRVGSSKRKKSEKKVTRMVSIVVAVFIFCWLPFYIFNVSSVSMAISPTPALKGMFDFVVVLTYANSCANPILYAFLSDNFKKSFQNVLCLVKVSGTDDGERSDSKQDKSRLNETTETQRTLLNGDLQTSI
Experimental: Measurement of the Binding Inhibition Rate of ^125I-Somatostatin
The receptor binding inhibition rate (%) of the subject compound was calculated using human.somatostatin receptor 2 expressing CHO cells and SSTR2-HS5-9 described in WO02/16350.
First, SSTR2-HS5-9 (1×10^9) was floated on a phosphate buffered saline supplemented with 5 mM EDTA (PBS-EDTA) and centrifuged. To the cell pellets was added 10 ml of a homogenate buffer for cells (10 mM NaHCO3, 5 mM EDTA, pH 7.5), which was homogenated using a Polytron homogenizer. The supernatant obtained by centrifugation at 400×g for 15 minutes was further centrifuged at 100,000×g for 1 hour to give a precipitate of the membrane fraction. The precipitates ere suspended in 2 ml of a buffer solution for assay [25 mM Tris-HCl, 1 mM EDTA (Ethylenediaminetetraacetic Acid), 0.1% BSA (Bovine Serum Albumin), 0.25 mM PMSF (Phenylmethylsulfonyl Fluoride), 1 μg/ml pepstatin, 20 μg/ml leupeptin, 10 μg/ml Phosphoramidone, pH 7.5], which was centrifuged at 100,000×g for 1 hour. The membrane fraction recovered as precipitates was suspended again in 20 ml of the buffer solution for assay, which was placed in tubes and stored at −80° C. The suspension was thawed and used at every use.
The thus-obtained membrane fraction of SSTR2-HS5-9 cells was diluted with a buffer solution for assay [25 mM Tris-HCl, 1 mM EDTA (Ethylenediaminetetraacetic Acid), 0.1% BSA (Bovine Serum Albumin), 0.25 mM PMSF (Phenylmethylsulfonyl Fluoride), 1 μg/ml pepstatin, 20 μg/ml leupeptin, 10 μg/ml Phosphoramidone, pH 7.51 to adjust the concentration to 3 μg/ml. The diluate was placed in tubes each in quantity of 173 μl. To this were simultaneously added 2 μl of a solution of a subject compound in DMSO and 25 μl of a 200 pM radioisotope-labeled somatostatin-14 (^125I-somatostatin-14: Amersham). For measurement of the maximum binding, a reaction mixture added with 2 μl of DMSO and 25 μl of a 200 pM ^125I-somatostatin was prepared. For measurement of non-specific binding, a reaction mixture added with 2 μl of a 100 μm somatostatin solution in DMSO and 25 μl of a 200 pM ^125I-somatostatin-14 solution was prepared at the same time. The mixtures were allowed to react at 25° C. for 60 minutes. Then, the reaction mixture was filtered by aspiration using a Whatman glass filter (GF-B) treated with polyethylenimine. After filtration, the radioactivity of ^125I-somatostatin-14 remaining on the filter paper was measured by a γ-counter. The binding inhibition rate (%) of each subject compound was calculated by the following formula: (TB−SB)/(TB−NSB)×100 • SB: radioactivity when a subject compound was added • TB: maximum binding radioactivity • NSB: non-specific binding radioactivity

glucagon secretion = experiment: Glucagon secretion inhibitory activity test (rat); assay type: in vivo; details: SD rats, male, fasted; 3 mg/kg body weight orally; insulin 2 U/kg s.c. 120 minutes later; plasma glucagon 30 minutes after insulin
Experimental: Glucagon Secretion Inhibitory Activity Test (Rat)
A 0.5% methylcellulose suspension containing the subject compound (3 mg/kg body weight) (compound administration group) or a 0.5% methylcellulose suspension (compound non-administration group) was orally administered to SD rats (male, 7 weeks of age) after fasting overnight, and 120 minutes later, insulin (2 U/kg body weight, Novo Nordisk) was subcutaneously administered. After 30 minutes from the insulin administration, the blood was drawn from the vein of eyegrounds of the rats using capillary, and blood plasma was separated by centrifugation. The concentration of glucagon in the obtained blood plasma was measured by radioimmunoassay using a Daiichi glucagon kit (Daiichi Isotope). As a non-treated group, the concentration of glucagon in the blood plasma of rat of the compound non-administration group free of insulin administration was measured in the same manner as above. […]

| Structure (SMILES) | binding inhibition rate (%) [1] | glucagon secretion (% of control) (glucagon secretion) |
| --- | --- | --- |
| CCOc1ccc(CN(C)C)cc1NC(=O)[C@H](NC(=O)N1CCN(c2ccc(F)cc2)CC1)[C@@H](C)c1c[nH]c2ccccc12 [Example 67, N-((1R,2S)-1-(((5-((dimethylamino)methyl)-2-ethoxyphenyl)amino)carbonyl)-2-(1H-indol-3-yl)propyl)-4-(4-fluorophenyl)-1-piperazinecarboxamide] | 96% |  |
| C[C@@H](c1c[nH]c2ccccc12)[C@@H](NC(=O)N1CCC(Oc2ccc(F)cc2)CC1)C(=O)Nc1cccc(CN(C)C)c1 [Example 2, N-( (1R,2S)-1-( ((3-((dimethylamino)methyl)phenyl)amino)carbonyl)-2-(1H-indol-3-yl)propyl)-4-(4-fluorophenoxy)-1-piperidinecarboxamide] | 100% |  |
| C[C@@H](c1c[nH]c2ccccc12)[C@@H](NC(=O)N1CCC(c2ccccc2)CC1)C(=O)Nc1cccc(CN(C)C)c1 [Example 1, N-((1R,2S)-1-(((3-((dimethylamino)methyl)phenyl)amino)carbonyl)-2-(1H-indol-3-yl)propyl)-4-phenyl-1-piperidinecarboxamide] | 98% | 9.5 % of control |
| CCOc1ccc(CN(C)C)cc1NC(=O)[C@H](NC(=O)N1CCC(c2ccccc2)CC1)[C@@H](C)c1c[nH]c2ccccc12 [Example 54, N-((1R,2S)-1-(((5-((dimethylamino)methyl)-2-ethoxyphenyl)amino)carbonyl)-2-(1H-indol-3-yl)propyl)-4-phenyl-1-piperidinecarboxamide] | 100% |  |
